Laboratory results as given in patent publication US10894021B2, “Compositions of xanthorrhizol and tocochromanol (tocotrienol), and methods of use” (American River Nutrition, LLC, priority 2017, dated 2021).
Read-outs that look alike come from different tables or passages of the source.

Experiments:
[1] = test system: murine B16 melanoma cells; settings: McAnally, Gupta et al. 2007, read-out: previous reported IC50, concentration required to elicit 50% of growth inhibition; cited from earlier work
[2] = test system: murine B16 melanoma cells; test: Cell growth assay, murine B16 melanoma cells (CellTiter 96 Aqueous One, 48 h); type: cell-based; settings: for suppression of the growth of B16 cells: P>0.05
Method: (§1) Cultures of cells, seeded in 0.1 mL medium with a density of 1,500 DU145 cells/well or 1,200 B16 cells/well in a 96-well plate, were incubated for 24 h at 37° C. in a humidified atmosphere of 5% CO2. At 24 h, the medium was decanted from each well and replaced with 0.1 mL fresh medium containing different concentrations of the test agents. Incubation continued for additional 48 h (B16) or 72 h (DU145). Following a quick rinse with 0.1 mL Hank's Balanced Salt Solution (HBSS), the 48-h (B16) or 72-h (DU145) cell populations were determined by adding 20 μL of CellTiter 96® Aqueous One Solution (Promega, Madison, Wis.) to each well; plates were held in the dark at 37° C. for 2 h and then read with a Synergy HT multi-plate reader (Biotek Instruments, Inc., Winooski, Vt.) and analyzed using the Gen5™ software (Biotek Instruments, Inc.). Absorbances from wells containing cell-free medium were used as baselines and were deducted from those of other cell-containing wells. The IC50 value is the concentration of xanthorrhizol required to suppress the net increase in cell number by 50%.
(§2) One-way analysis of variance (ANOVA) and Kruskal-Wallis tests were performed to assess the differences between groups using Prism® 7.0 software (GraphPad Software Inc., San Diego, Calif.). Differences in means were analyzed by Dunnett's multiple comparison test unless specified otherwise. Values were mean±standard error of mean (SEM). Levels of significance were designated as P<0.05. […] The constant-ratio combination design of xanthorrhizol and d-δ-tocotrienol in our study allowed automated creation of the classic isobologram by using the CompuSyn software. CI values lower than 1 indicate synergistic effect of the agents (Tallarida 2006).
(§3) Murine B16 melanoma cells were cultured in Dulbecco's Modified Eagle's Medium (DMEM) supplemented with 10% FBS, 1% penicillin-streptomycin and 0.8% gentamicin. For optimal growth, cells were incubated at 37° C. in a humidified atmosphere of 5% CO2. d-δ-Tocotrienol and xanthorrhizol were pre-dissolved in ethyl alcohol. All treated cultures contained 0.1% (v/v) of ethyl alcohol.

[3] = test system: human DU145 prostate carcinoma cells; test: Cell growth assay, human DU145 prostate carcinoma cells (CellTiter 96 Aqueous One, 72 h); type: cell-based; settings: for concentration achieving 90% of growth suppression: individual agent (FIG. 6)
Method: as §1, §2
Human DU145 prostate carcinoma cells were cultured in Roswell Park Memorial Institute ([…]) medium supplemented with 10% Fetal Bovine Serum (FBS; Fisher Scientific, Houston, Tex.), 1% penicillin-streptomycin (Fisher Scientific), and 0.8% gentamicin (Fisher Scientific).

[4] = test system: murine B16 melanoma cells; test: Cell cycle analysis by flow cytometry (propidium iodide DNA content), B16 cells; type: cell-based; settings: 24-h; for percentage of cells at the G1 phase: mean±SEM, control 56.1±1.6%, no significant change
Method: Cells were seeded in 25 cm^2 flasks (Becton Dickinson Labware, Franklin Lakes, N.J.) at 1×10^6 cells (B16) per flask with 3 mL medium/flask and incubated for 24 h. Medium was then decanted and cultures were replenished with fresh medium containing the test agents that had been dissolved in ethyl alcohol. Following an additional 24-h incubation, adherent cells were harvested by trypsinization and pelleted by low speed centrifugation at 500 g for 5 min. Cell pellets were gently fixed in 1 mL of 70% ethanol-PBS mixture at −20° C. overnight and washed with PBS before 5×10^5 cells were re-suspended in 500 μL of PBS containing freshly prepared propidium iodide and RNase A (Roche Diagnostics, Indianapolis, Ind.) and incubated at 37° C. in the dark for 30 min as described (Yeganehjoo, DeBose-Boyd et al. 2017). Aliquots of 200 μL of the stained cells were analyzed for DNA content using a BD LSR Fortessa flow cytometer (BD Biosciences, San Jose, Calif.). The distribution of cells in the G1 and S phases of the cell cycle was determined using MultiCycle AV software (Phoenix Flow Systems, San Diego, Calif.).
as §3
The effect of blends of xanthorrhizol and d-δ-tocotrienol were evaluated on the cell cycle distribution of murine B16 melanoma cells (FIG. 4). At 0-h as baseline, the percentages of cells in the G1, S, and G2 phases of cell cycle were 54.1±0.7%, 27.6±0.4%, and 18.3±0.8% (mean±SEM), respectively. Following a 24-h incubation […], these percentages were relatively stable for the control group (56.1±1.6%, 32.1±0.6% and 11.7±1.9% for G1, S and G2 phases, respectively).

[5] = 16.25 μmol/L xanthorrhizol, versus control

Row | SMILES | IC50 [1] | suppression of the growth of B16 cells ([2]; 10 μmol/L d-δ-tocotrienol applied individually) | suppression of the proliferation of murine B16 melanoma cells ([2]; d-δ-tocotrienol 0-40 μmol/L) | concentration achieving 90% of growth suppression ([3]; DU145 cells) | percentage of cells at the G1 phase ([4]; 5 μmol/L d-δ-tocotrienol) | suppression of the growth of B16 cells ([2]; 16.25 μmol/L xanthorrhizol applied individually) | IC50 ([2]; B16 cells, 48 h incubation, read-out: IC50, concentration required to elicit 50% of growth inhibition) | suppression of the proliferation of murine B16 melanoma cells ([2]; xanthorrhizol 0-200 μmol/L) | IC50 ([3]; DU145 cells, 72 h incubation, read-out: IC50, suppression of the proliferation of DU145 cells) | suppression of the proliferation of human DU145 prostate carcinoma cells ([3]; xanthorrhizol 0-200 μmol/L) | G1/S ratio, indicator of cell cycle arrest [4, 5] | percentage of cells at the S phase [4, 5] | percentage of cells at the G1 phase ([4]; 16.25 μmol/L xanthorrhizol)
1 | CC(C)=CCC/C(C)=C/CC/C(C)=C/CC[C@]1(C)CCc2cc(O)cc(C)c2O1 [d-δ-tocotrienol] | 14 µM | ~12% | concentration-dependent suppression | 32 µmol/L | 59.2±1.3% | – | – | – | – | – | – | – | –
2 | CC(C)=CCC[C@@H](C)c1ccc(C)c(O)c1 [xanthorrhizol] | – | – | – | 182 µmol/L | – | approximately 15% | 65 µM | concentration-dependent suppression | 101 µM | concentration-dependent suppression | significantly higher | decreased | 59.5±0.7%
